Experimental data reported in patent publication US20150328191A1, “USE OF PIDOTIMOD TO TREAT PSORIASIS” (POLICHEM S.A., priority 2012, published 2015).
Peptide text beside a SMILES is read from it.

Tested on: psoriatic patients (mild psoriasis)
Assay: Evaluation of pidotimod in psoriatic patients by PASI evaluation; safety also evaluated
Assay type: in vivo, human
Conditions: 800 mg daily oral, 12 weeks
Description: An evaluation of the activity of pidotimod was tested on psoriatic patients, in order to assess the efficacy in terms of improvement of the pathology by means of PASI evaluation. The safety of the treatment was also evaluated. The study was performed in 5 patients (3 males and 2 females, aged between 31-53, mean=42) with a clinical diagnosis of mild psoriasis of at least 6 months. […] The body surface area involvement at the baseline was ≦10% with a PASI value ≦10.
The study product was taken with the composition of the Example 6 at a dosage of two oral vials daily, i.e. 800 mg daily of the active ingredient, taken far from mealtimes.
During the trial, the following visits were performed: • baseline—T0 (before the product use) • intermediate visit—T6 (after 6 weeks of treatment) • final visit—T12 (after 12 weeks of treatment)
No relevant event, which may have interfered to the test results, occurred during the study period.
The efficacy of the product was expressed by mean of values of PASI evaluation, assessing the PASI at the baseline and at the intermediate visit and the final one.

O=C1CC[C@@H](C(=O)N2CSC[C@H]2C(=O)O)N1 [pidotimod, (4R)-3-(5-oxo-L-prolyl)-1,3-thiazolidine-4-carboxylic acid] (HELM PEPTIDE1{[Glp].[O=C(O)[C@@H]1CSCN1[*:1]]}$$$$V2.0)
Side effects (5 patients): no side effects were reported
Tolerability of the treatment (5 patients): very well tolerated
Student t test p for decrease of the PASI value at T12 (end of treatment) vs. T0 (baseline) (5 patients, statistically significant decrease): < 0.05
Improvement in the clinical evidences of the illness (all 5 patients): important improvement
